Assay results taken from article PMC7168151, “Brevinin-2GHk from Sylvirana guentheri and the Design of Truncated Analogs Exhibiting the Enhancement of Antimicrobial Activity” (Antibiotics, 2020).
≈ marks a conversion by molar mass, not a printed value. Where a SMILES comes first, the peptide text is derived from it. Where no end group is shown, it is not given here.

Legend:
[1] = test system: Pseudomonas aeruginosa (ATCC 27853); assay type: cell-based
Description: (§1) The antimicrobial activity of synthetic peptides was determined using the minimal inhibitory concentration (MIC) and the minimal bactericidal concentration […] performed by the microdilution method in a 96 well plate. Gram-positive bacteria, Staphylococcus aureus (NCTC 10788), methicillin-resistant Staphylococcus aureus (MRSA, NCTC 12493), Enterococcus faecalis (NCTC12697), and Gram-negative bacteria, Escherichia coli (NCTC 10418), Pseudomonas aeruginosa (ATCC 27853), Klebsiella pneumoniae (ATCC 43816) and the pathogenic yeast Candida albicans (NCYC 1467). All bacteria were cultured in MHB and C. albicans was cultured in YPD broth. Norfloxacin and amphotericin B were used as positive controls for bacteria and yeast, respectively.

[2] = test system: Candida albicans (NCYC 1467); assay type: cell-based
Description: as §1

[3] = test system: Klebsiella pneumoniae (ATCC 43816); assay type: cell-based
Description: as §1

[4] = test system: Enterococcus faecalis (NCTC12697); assay type: cell-based
Description: as §1

[5] = test system: Escherichia coli (NCTC 10418); assay type: cell-based
Description: as §1

[6] = test system: methicillin-resistant Staphylococcus aureus (MRSA, NCTC 12493); assay type: cell-based
Description: as §1

[7] = test system: Staphylococcus aureus (NCTC 10788); assay type: cell-based
Description: as §1

HMEC-1 cells = settings: for drop in cell viability of HMEC-1 cells: 100 µM
Description: The cytotoxicity of BR2GK and its derivatives were determined by hemolysis assay and MTT assay on the dermal microvascular endothelium cell line, HMEC-1 (ATCC CRL-3243).
MTT assays were conducted as outlined previously [35]. Ten thousand cells were seeded in each well of a 96-well plate. Cells were treated with different peptide concentrations for 24 h. Triton (0.1%) X-100 was used as a positive control.

Description for horse erythrocytes: Horse erythrocytes (TCS Biosciences Ltd., Buckingham, UK) were subjected to the hemolysis of all synthetic peptides as described previously [35]. Briefly, the erythrocytes were washed and resuspended by PBS to achieve a 4% suspension. The test peptide solutions were transferred into the aforementioned suspension and kept at a constant 37 °C for 2 h, while Triton X-100 (Sigma-Aldrich, St. Louis, MO, USA) was employed to replace the peptide solution for establishing the positive control. The supernatants after incubation were measured at 470 nm.

Compound | MBC P. aeruginosa [1] [µM] | MIC P. aeruginosa [1] [µM] | MBC C. albicans [2] [µM] | MIC C. albicans [2] [µM] | MBC K. pneumoniae [3] [µM] | MIC K. pneumoniae [3] [µM] | MBC E. faecalis [4] [µM] | MIC E. faecalis [4] [µM] | MBC E. coli [5] [µM] | MIC E. coli [5] [µM] | MBC MRSA [6] [µM] | MIC MRSA [6] [µM] | MBC S. aureus [7] [µM] | MIC S. aureus [7] [µM] | hemolysis of horse erythrocytes at 256 µM (horse erythrocytes) | cytotoxicity on HMEC-1 cells at 100 µM (HMEC-1 cells) | drop in cell viability of HMEC-1 cells (HMEC-1 cells)
GFSSLFKAGAKYLAKQVGKAGAQQL-NH2 [[A^14]BR2GK(1-25)a] | 128 | 32 | 32 | 16 | 256 | 128 | 16 | 8 | 32 | 8 | 64 | 16 | 16 | 8 |  |  | 
CC(C)C[C@H](NC(=O)[C@H](CCC(N)=O)NC(=O)[C@H](CCC(N)=O)NC(=O)[C@H](C)NC(=O)CNC(=O)[C@H](C)NC(=O)[C@H](CCCCN)NC(=O)CNC(=O)[C@@H](NC(=O)[C@H](CCC(N)=O)NC(=O)[C@H](CCCCN)NC(=O)[C@H](CC(C)C)NC(=O)[C@H](CC(C)C)NC(=O)[C@H](Cc1ccc(O)cc1)NC(=O)[C@H](CCCCN)NC(=O)[C@H](C)NC(=O)CNC(=O)[C@H](C)NC(=O)[C@H](CCCCN)NC(=O)[C@H](Cc1ccccc1)NC(=O)[C@H](CC(C)C)NC(=O)[C@H](CO)NC(=O)[C@H](CO)NC(=O)[C@H](Cc1ccccc1)NC(=O)CN)C(C)C)C(=O)N[C@@H](C)C(=O)N[C@H]1CSSC[C@@H](C(=O)O)NC(=O)[C@H](CC(N)=O)NC(=O)[C@H](CC(N)=O)NC(=O)[C@H](C)NC(=O)[C@H](C)NC(=O)[C@H](CCCCN)NC1=O [BR2GK] (HELM PEPTIDE1{G.F.S.S.L.F.K.A.G.A.K.Y.L.L.K.Q.V.G.K.A.G.A.Q.Q.L.A.C.K.A.A.N.N.C}$PEPTIDE1,PEPTIDE1,27:R3-33:R3$$$V2.0) |  | > 512 |  | 256 (≈ 867 µg/mL) |  |  | 256 (≈ 867 µg/mL) | 64 (≈ 217 µg/mL) |  |  |  |  | 256 (≈ 867 µg/mL) | 64 (≈ 217 µg/mL) | more than 40% | significant cytotoxicity | 
GFSSLFKAGAKYLRKQVGKAGAQQL-NH2 [[R^14]BR2GK(1-25)a] | 32 | 16 | 128 | 64 | 256 | 128 | 32 | 16 | 16 | 8 | 128 | 64 | 32 | 16 |  |  | around 15%
GFSSLFKAGAKYLLKQVGKAGAQQL-NH2 [BR2GK(1-25)a] | 32 | 8 | 16 | 4 | 32 | 16 | 16 | 4 | 8 | 4 | 16 | 4 | 8 | 4 | around 20% |  | around 15%
GFSSLFKAGAKYLKKQVGKAGAQQL-NH2 [[K^14]BR2GK(1-25)a] | 64 | 16 | 128 | 64 | 256 | 128 | 64 | 16 | 32 | 8 | 128 | 64 | 32 | 16 |  |  | around 15%
GFSSLFKAGAKYLPKQVGKAGAQQL-NH2 [[P^14]BR2GK(1-25)a] | > 512 | > 512 |  |  | > 512 | > 512 |  |  | > 512 | > 512 | > 512 | > 512 | > 512 | 512 |  |  | 
